Data: US20230210813A1, “METHODS AND PHARMACEUTICAL COMPOSITIONS FOR THE TREATMENT OF CHRONIC KIDNEY DISEASE” (INSERM (INSTITUTE NATIONAL DE LA SANTÉ ET DE LA RECHERCHE …, priority 2020, published 2023)

How the values were obtained:
Ins2Akita mice (DKD) [1] = test: DMAPT versus ramipril treatment of diabetic Ins2Akita mice (second series, FIG. 1); type: in vivo, mouse; conditions: for urinary albumin/creatinine ratio (ACR): 10 mg/kg/d for 2 months from 2 months of age, vs untreated DKD, FIG. 1A; for glomerular injury (PAS staining) / glomerular area / fibrosis (Masson trichrome staining) / glycemia / body weight: 10 mg/kg/d for 2 months; for glomerular injury (PAS staining): FIG. 1B; for glomerular area: FIG. 1C; for fibrosis (Masson trichrome staining): FIG. 1D; for glycemia: FIG. 1E; for body weight: FIG. 1F
Experimental: (§1) Male C57BL/6-Ins2Akita/J (Ins2Akita) and C57BL/6J (WT) mice (Charles River) were housed with unrestricted access to water and were maintained on a 12-h light-dark cycle in a pathogen-free environment on standard mouse chow. All experiments were conducted in accordance with the Guide for the care and use of laboratory animals of the National Institute of Health, eighth edition and the French Institute of Health guidelines for the care and use of laboratory animals. The project was approved by the local (Inserm/UPS US006 CREFRE) and national ethics committees (ethics committee for animal experiment, CEEA122; Toulouse, France; approval 02867.01).
(§2) In a first series of experiments, 2 months old mice were treated with or without ACEi ramipril (10 mg/kg/d in drinking water) for 2 months. In a second series of experiments 2 months old mice were treated with or without ACEi ramipril as in the first series or with dimethylaminoparthenolide monofumarate (DMAPT, 10 mg/kg/d by gavage) for 2 months. In each series of experiments, urine was collected in metabolic cages for 12 h, few days before sacrifice.
Right kidney cortexes were fixed in Carnoy's solution for 24 h, dehydrated in successive baths with increasing alcohol concentrations, embedded in paraffin and 2 μm sections were cut and mounted, and stained with either periodic acid-Schiff (PAS) or Masson trichrome. Stained sections were scanned using a Nanozoomer 2.0 RS (Hamamatsu Photonics SARL) and treated with the Morpho-expert image-analysis software (version 1.00, Explora Nova) for renal corpuscle surface quantification. At least 50 glomeruli including superficial and […] cortical area, were examined for each animal. The extent of glomerular injury was expressed as the percentage of glomerular area fraction occupied by PAS positive matrix^3.
(§3) Urinary albumin concentration was measured by ELISA using the AlbuWell kit (WAK-Chemie Medical GmbH, Steinbach, Germany). Urinary creatinine concentration was measured by the colorimetric method of Jaffe according to the protocol Creatinine Assay Kit (Bio Assay Systems). Blood glucose levels were measured in caudal blood from fasted awake mice using a glucometer (Glucometer Elite XL; Bayer Healthcare, Elkhart, Ind.).
(§4) Comparison between 2 groups of values was implemented using a two-tailed unpaired Welch's t-tests. Comparison between more than 2 groups, was implemented using an ordinary one-way ANOVA followed by Homl-Sidak's multiple comparisons test was used. P<0.05 was considered statistically significant. For the proteomic data the P values were adjusted for the false discovery rate (Benjamini-Hochberg).

[2] = cited from earlier work
[3] = fumarate salt; cited from earlier work
[4] = tested on: histone deacetylase (HDAC); conditions: independent of NF kappa B; cited from earlier work
[5] = tested on: immune glomerulonephritis in rat; conditions: cited from earlier work
[6] = tested on: type 2 diabetic db/db mice; conditions: cited from earlier work
[7] = tested on: NF kappa B transcription factor complex; conditions: cited from earlier work
patients with cancer = conditions: Phase I, standardized doses; cited from earlier work
Ins2Akita mice (DKD) [8] = test: Ramipril treatment of diabetic Ins2Akita mice (first series); type: in vivo, mouse
Experimental: as §1, §2, §3, §4

[9] = ramipril 10 mg/kg/d in drinking water for 2 months

SMILES | urinary albumin/creatinine ratio (ACR) (Ins2Akita mice (DKD) [1]) | glomerular injury (PAS staining) (Ins2Akita mice (DKD) [1]) | glomerular area (Ins2Akita mice (DKD) [1]) | fibrosis (Masson trichrome staining) (Ins2Akita mice (DKD) [1]) | glycemia (Ins2Akita mice (DKD) [1]) | body weight (Ins2Akita mice (DKD) [1]) | water-solubility [2] | oral bioavailability [3] | HDAC activity [4] | proteinuria and renal injury [5] | renal inflammation and insulin resistance [6] | activity of the NF kappa B transcription factor complex [7] | tolerability / dose-limiting toxicity (patients with cancer) | body weight (Ins2Akita mice (DKD) [8]; [9]) | glycemia (Ins2Akita mice (DKD) [8]; [9]) | ACR (Ins2Akita mice (DKD) [8]; ramipril 10 mg/kg/d in drinking water from 2 months of age for 2 months)
C/C1=C/CC[C@@]2(C)O[C@@H]2[C@H]2OC(=O)[C@H](CN(C)C)[C@@H]2CC1 [DMAPT, (4E,8S)-8-[(dimethylamino)methyl]-2,3,6,7,7aS,8,10aS,10bR-octahydro-1aR,5-dimethyl-oxireno[9,10]cyclodeca[1,2-b]furan-9(1aH)-one] | significant reduction | significantly reduced | tended to reduce glomerular area without reaching significance | significantly reduced | Neither glycemia (FIG. 1E) nor body weight (FIG. 1F) were significantly influenced | Neither glycemia (FIG. 1E) nor body weight (FIG. 1F) were significantly influenced | water-soluble | orally bioavailable | inhibit histone deacetylase (HDAC) activity | – | – | – | – | – | – | –
C=C1C(=O)O[C@@H]2[C@H]3O[C@]3(C)CC/C=C(\C)CC[C@@H]12 [parthenolide, (1aR,4E,7aS,10aS,10bR)-2,3,6,7,7a,8,10a,10b-octahydro-1a,5-dimethyl-8-methylene-oxireno[9,10]cyclodeca[1,2-b]furan-9(1aH)-one] | – | – | – | – | – | – | poor water-solubility | – | – | beneficial impact | able to alleviate renal inflammation and insulin resistance | inhibiting the activity | well tolerated without dose-limiting toxicity | – | – | –
CCOC(=O)[C@H](CCc1ccccc1)N[C@@H](C)C(=O)N1[C@H](C(=O)O)C[C@@H]2CCC[C@@H]21 [ramipril] | significant reduction | no significant influence | no significant influence | no significant influence | Neither glycemia (FIG. 1E) nor body weight (FIG. 1F) were significantly influenced | Neither glycemia (FIG. 1E) nor body weight (FIG. 1F) were significantly influenced | – | – | – | – | – | – | – | no influence | slightly but significantly reduced | significantly reduced
